ChEMBL document CHEMBL5291721, “A preclinical secondary pharmacology resource illuminates target-adverse drug reaction associations of marketed drugs” (Nat Commun, 2023)

Key:
[1] = molecular target: 5-hydroxytryptamine receptor 5A (Homo sapiens, UniProt P47898)
[2] = molecular target: Cannabinoid receptor 1 (Homo sapiens, UniProt P21554); format: functional
[3] = molecular target: T1, Muscarinic acetylcholine receptor M4 (Homo sapiens, UniProt P08173)
T1 sequence (P08173 whole entry): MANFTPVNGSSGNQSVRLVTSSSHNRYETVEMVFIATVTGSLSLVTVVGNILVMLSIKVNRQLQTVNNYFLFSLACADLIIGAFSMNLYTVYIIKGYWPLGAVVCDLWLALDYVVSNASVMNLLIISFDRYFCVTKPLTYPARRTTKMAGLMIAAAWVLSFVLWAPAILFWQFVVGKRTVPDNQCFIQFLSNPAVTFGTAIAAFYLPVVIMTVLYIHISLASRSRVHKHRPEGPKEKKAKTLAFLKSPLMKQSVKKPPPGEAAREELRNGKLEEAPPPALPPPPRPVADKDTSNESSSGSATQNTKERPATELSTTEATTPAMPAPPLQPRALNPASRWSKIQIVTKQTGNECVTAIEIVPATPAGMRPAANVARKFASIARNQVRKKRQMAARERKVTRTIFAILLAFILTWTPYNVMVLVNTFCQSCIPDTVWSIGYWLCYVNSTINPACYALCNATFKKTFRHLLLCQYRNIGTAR

[4] = molecular target: T2, Muscarinic acetylcholine receptor M5 (Homo sapiens, UniProt P08912)
T2 sequence (P08912 whole entry): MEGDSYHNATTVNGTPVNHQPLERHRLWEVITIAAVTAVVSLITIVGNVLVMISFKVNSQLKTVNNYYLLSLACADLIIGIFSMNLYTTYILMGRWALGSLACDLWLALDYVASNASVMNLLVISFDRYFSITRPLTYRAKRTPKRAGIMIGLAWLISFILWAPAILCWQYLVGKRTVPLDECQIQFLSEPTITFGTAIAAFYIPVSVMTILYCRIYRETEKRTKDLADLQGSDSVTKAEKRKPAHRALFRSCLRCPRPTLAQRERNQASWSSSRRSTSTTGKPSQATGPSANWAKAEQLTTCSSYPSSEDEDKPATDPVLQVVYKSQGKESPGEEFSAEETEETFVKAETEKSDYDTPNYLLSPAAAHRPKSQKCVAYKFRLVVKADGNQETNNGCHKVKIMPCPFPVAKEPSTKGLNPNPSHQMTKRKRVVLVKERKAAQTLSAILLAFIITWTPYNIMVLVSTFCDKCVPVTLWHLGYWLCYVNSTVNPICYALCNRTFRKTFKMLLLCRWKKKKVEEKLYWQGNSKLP

[5] = molecular target: T3, Muscarinic acetylcholine receptor M2 (Homo sapiens, UniProt P08172)
T3 sequence (P08172 whole entry): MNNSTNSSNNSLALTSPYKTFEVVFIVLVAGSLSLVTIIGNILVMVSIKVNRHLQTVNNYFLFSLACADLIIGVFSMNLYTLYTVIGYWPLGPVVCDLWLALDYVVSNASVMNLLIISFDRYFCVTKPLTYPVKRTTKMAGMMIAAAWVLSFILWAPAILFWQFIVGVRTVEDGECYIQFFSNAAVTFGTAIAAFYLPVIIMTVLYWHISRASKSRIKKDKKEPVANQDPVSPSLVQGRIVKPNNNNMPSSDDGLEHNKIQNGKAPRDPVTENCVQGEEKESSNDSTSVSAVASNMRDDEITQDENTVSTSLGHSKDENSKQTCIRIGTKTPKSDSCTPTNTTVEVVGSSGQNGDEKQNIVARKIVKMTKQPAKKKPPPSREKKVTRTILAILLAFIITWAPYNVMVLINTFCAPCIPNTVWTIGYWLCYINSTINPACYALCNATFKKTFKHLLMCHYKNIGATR

[6] = molecular target: Voltage-dependent L-type calcium channel subunit alpha-1C (Homo sapiens, UniProt Q13936); format: functional, cell-based
[7] = molecular target: Beta-1 adrenergic receptor (Homo sapiens, UniProt P08588); format: functional, cell-based
[8] = molecular target: T4, Histamine H1 receptor (Homo sapiens, UniProt P35367); format: functional, cell-based
[9] = molecular target: T4, Histamine H1 receptor; format: functional, cell-based; remark: listed apart in the source
Note: assay procedure not described here.

T4 sequence (P35367 whole entry): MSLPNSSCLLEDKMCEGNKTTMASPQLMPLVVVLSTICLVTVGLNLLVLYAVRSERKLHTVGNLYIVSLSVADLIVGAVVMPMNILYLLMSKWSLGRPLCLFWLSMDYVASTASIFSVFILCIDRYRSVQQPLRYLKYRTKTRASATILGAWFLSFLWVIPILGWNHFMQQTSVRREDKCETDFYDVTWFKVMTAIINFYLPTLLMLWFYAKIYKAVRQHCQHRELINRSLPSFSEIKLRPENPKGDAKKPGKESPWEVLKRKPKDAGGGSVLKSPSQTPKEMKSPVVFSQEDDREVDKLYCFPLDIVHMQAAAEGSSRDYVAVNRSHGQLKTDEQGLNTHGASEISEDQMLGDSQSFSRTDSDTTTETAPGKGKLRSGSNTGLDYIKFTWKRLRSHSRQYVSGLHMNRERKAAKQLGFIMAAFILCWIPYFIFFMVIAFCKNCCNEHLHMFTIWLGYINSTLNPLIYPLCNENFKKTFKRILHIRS
Chain of Cannabinoid receptor 1 (P21554 whole entry): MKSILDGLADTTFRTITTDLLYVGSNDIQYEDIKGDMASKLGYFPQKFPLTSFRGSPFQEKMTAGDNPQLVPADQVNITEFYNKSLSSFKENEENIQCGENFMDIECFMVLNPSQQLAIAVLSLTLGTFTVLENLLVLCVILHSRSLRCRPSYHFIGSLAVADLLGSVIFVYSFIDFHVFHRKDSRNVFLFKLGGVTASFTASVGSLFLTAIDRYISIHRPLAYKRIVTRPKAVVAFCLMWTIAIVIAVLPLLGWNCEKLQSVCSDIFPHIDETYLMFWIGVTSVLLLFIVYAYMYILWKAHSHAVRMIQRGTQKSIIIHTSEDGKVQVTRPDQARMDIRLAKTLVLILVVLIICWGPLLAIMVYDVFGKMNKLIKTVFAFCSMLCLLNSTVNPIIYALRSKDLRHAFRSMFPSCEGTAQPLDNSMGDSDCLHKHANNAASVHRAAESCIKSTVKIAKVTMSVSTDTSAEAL
Chain of 5-hydroxytryptamine receptor 5A (P47898 whole entry): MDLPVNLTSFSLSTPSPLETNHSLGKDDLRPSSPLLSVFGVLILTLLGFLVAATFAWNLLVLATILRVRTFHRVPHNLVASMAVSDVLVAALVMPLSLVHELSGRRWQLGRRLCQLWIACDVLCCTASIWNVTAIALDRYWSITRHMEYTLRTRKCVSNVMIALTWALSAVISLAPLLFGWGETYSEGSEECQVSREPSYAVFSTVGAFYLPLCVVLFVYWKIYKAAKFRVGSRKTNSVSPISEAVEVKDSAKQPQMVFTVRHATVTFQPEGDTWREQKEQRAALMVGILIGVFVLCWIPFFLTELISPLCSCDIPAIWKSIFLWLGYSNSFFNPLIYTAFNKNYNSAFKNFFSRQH
Chain of Beta-1 adrenergic receptor (P08588 whole entry): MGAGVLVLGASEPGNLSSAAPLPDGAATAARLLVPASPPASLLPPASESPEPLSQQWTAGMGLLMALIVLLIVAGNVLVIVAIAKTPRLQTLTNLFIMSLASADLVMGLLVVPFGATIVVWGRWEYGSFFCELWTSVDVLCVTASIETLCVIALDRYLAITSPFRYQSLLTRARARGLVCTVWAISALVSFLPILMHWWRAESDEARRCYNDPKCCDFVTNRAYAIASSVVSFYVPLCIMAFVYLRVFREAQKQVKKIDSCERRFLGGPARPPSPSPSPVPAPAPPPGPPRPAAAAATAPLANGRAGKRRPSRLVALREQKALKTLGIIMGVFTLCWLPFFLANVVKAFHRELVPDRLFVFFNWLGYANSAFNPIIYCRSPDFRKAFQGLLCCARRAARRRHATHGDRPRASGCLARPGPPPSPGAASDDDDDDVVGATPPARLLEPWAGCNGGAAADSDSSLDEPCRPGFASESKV
Chain of Voltage-dependent L-type calcium channel subunit alpha-1C (Q13936 whole entry): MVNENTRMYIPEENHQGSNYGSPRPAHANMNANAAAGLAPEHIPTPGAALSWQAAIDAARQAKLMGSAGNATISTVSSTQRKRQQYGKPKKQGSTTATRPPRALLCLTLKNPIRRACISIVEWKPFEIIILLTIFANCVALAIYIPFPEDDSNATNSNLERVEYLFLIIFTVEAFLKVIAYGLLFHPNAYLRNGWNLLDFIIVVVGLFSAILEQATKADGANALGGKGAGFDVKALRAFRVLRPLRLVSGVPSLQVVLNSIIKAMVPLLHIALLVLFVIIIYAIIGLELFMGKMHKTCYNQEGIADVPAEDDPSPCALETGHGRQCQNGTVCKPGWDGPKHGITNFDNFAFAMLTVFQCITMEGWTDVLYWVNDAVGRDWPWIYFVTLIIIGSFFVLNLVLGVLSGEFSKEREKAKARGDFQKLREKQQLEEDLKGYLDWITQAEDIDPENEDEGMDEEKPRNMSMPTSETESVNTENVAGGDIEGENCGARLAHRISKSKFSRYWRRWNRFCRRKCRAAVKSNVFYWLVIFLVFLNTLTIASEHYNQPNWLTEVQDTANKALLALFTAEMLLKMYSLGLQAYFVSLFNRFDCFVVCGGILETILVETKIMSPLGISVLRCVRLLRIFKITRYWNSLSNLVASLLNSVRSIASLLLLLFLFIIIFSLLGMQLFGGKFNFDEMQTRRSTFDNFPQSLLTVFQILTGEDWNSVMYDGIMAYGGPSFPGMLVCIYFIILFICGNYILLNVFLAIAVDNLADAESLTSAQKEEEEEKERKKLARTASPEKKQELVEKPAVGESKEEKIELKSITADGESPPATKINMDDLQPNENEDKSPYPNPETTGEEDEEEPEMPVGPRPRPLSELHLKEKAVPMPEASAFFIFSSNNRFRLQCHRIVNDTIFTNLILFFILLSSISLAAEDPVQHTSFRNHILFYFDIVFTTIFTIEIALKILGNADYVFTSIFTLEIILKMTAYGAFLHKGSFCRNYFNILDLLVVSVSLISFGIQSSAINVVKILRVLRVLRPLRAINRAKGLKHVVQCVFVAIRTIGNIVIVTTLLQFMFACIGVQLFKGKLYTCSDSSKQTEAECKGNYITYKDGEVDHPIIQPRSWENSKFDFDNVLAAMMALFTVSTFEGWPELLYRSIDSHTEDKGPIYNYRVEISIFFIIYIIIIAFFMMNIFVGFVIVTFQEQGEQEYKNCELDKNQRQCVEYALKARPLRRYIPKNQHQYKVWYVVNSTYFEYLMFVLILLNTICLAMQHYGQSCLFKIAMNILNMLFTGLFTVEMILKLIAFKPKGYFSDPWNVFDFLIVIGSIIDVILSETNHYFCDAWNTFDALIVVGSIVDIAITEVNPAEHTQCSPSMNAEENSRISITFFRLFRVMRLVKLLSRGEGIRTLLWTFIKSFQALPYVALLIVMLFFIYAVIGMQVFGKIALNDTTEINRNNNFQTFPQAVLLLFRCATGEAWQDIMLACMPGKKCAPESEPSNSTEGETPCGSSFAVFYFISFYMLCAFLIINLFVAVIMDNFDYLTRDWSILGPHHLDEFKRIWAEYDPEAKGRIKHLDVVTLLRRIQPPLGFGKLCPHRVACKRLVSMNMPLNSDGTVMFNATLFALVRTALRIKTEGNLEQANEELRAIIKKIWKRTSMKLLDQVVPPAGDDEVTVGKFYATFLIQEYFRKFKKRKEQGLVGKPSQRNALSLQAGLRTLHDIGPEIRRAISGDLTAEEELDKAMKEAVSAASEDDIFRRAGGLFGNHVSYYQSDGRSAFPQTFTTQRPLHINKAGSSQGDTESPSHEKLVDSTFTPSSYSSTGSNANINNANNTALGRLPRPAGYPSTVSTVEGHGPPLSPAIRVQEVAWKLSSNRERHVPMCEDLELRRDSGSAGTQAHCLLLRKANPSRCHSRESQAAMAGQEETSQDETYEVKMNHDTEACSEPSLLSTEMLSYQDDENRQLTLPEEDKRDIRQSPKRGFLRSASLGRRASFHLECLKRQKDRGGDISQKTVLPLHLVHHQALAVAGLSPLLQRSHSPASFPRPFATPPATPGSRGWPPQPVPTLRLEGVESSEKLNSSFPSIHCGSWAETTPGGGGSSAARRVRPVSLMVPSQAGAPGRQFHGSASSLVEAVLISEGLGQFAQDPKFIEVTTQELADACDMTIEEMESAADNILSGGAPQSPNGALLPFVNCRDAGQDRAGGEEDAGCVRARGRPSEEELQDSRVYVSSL

Structure (SMILES)	AC50 [1] [µM]	AC50 [2] [µM]	AC50 [3] [µM]	AC50 [4] [µM]	other results
O=C(Nc1nc(-c2cc(Cl)cs2)c(N2CCN(C3CCCCC3)CC2)s1)c1cnc(N2CCC(C(=O)O)CC2)c(Cl)c1 [AVATROMBOPAG]	> 10	> 10	> 10	> 10	
OC(CCCN1CCCCC1)(c1ccccc1)c1ccccc1 [DIPHENIDOL]					AC50 [5]: 0.38 µM
O=C(CCCN1CC=C(n2c(=O)[nH]c3ccccc32)CC1)c1ccc(F)cc1 [DROPERIDOL]					AC50 [6]: > 50 µM
CCn1cc(C(=O)O)c(=O)c2cc(F)c(N3CCNCC3)nc21 [ENOXACIN]	> 10	> 10	> 10	> 10	
CNC(=O)Oc1ccc2c(c1)[C@]1(C)CCN(C)[C@@H]1N2C [PHYSOSTIGMINE]					AC50 [7]: > 30 µM
O=C(CCCN1CCC2(CC1)C(=O)NCN2c1ccccc1)c1ccc(F)cc1 [SPIPERONE]					AC50 [8]: 7.1 µM; AC50 [9]: 1.2 µM
